system: microfilariae of Dirofilaria immitis; experiment: Dirofilaria immitis, Microfilaria (DiMF) In vitro Assay; format: cell-based; details: 72 h, read-out: DiMF Minimum Effective Dose (MED), approximately 72 hours incubation, microfilariae assessed for survival or paralysis

| SMILES | minimal effective concentration |
| --- | --- |
| CC(C)C[C@H]1C(=O)O[C@H](Cc2ccc(Cn3nc(C4CC4)cc3C3CC3)cc2)C(=O)N(C)[C@@H](CC(C)C)C(=O)O[C@H](C)C(=O)N(C)[C@@H](CC(C)C)C(=O)O[C@H](Cc2ccccc2)C(=O)N(C)[C@@H](CC(C)C)C(=O)O[C@H](C)C(=O)N1C [Example 2-32, (3S,6R,9S,12R,15S,18R,21S,24R)-6-benzyl-18-(4-((3,5-dicyclopropyl-1H-pyrazol-1-yl)methyl)benzyl)-3,9,15,21-tetraisobutyl-4,10,12,16,22,24-hexamethyl-1,7,13,19-tetraoxa-4,10,16,22-tetraazacyclotetracosan-2,5,8,11,14,17,20,23-octaone] | 0.01 to 0.1 µM |
| CC(C)C[C@H]1C(=O)O[C@H](Cc2ccc(Cn3cc(CCO)cn3)cc2)C(=O)N(C)[C@@H](CC(C)C)C(=O)O[C@H](C)C(=O)N(C)[C@@H](CC(C)C)C(=O)O[C@H](Cc2ccccc2)C(=O)N(C)[C@@H](CC(C)C)C(=O)O[C@H](C)C(=O)N1C [Example 2-35, (3S,6R,9S,12R,15S,18R,21S,24R)-6-benzyl-18-(4-((4-(2-hydroxyethyl)-1H-pyrazol-1-yl)methyl)benzyl)-3,9,15,21-tetraisobutyl-4,10,12,16,22,24-hexamethyl-1,7,13,19-tetraoxa-4,10,16,22-tetraazacyclotetracosan-2,5,8,11,14,17,20,23-octaone] | 0.01 to 0.1 µM |
| CC(C)C[C@H]1C(=O)O[C@H](Cc2ccc(Cn3cc(NS(C)(=O)=O)cn3)cc2)C(=O)N(C)[C@@H](CC(C)C)C(=O)O[C@H](C)C(=O)N(C)[C@@H](CC(C)C)C(=O)O[C@H](Cc2ccccc2)C(=O)N(C)[C@@H](CC(C)C)C(=O)O[C@H](C)C(=O)N1C [Example 2-36, N-(1-(4-(((2R,5S,8R,11S,14R,17S,20R,23S)-14-benzyl-5,11,17,23-tetraisobutyl-4,8,10,16,20,22-hexamethyl-3,6,9,12,15,18,21,24-octaoxo-1,7,13,19-tetraoxa-4,10,16,22-tetraazacyclotetracosan-2-yl)methyl)benzyl)-1H-pyrazol-4-yl)methanesulfonamide] | 0.01 to 0.1 µM |
| CC(C)C[C@H]1C(=O)O[C@H](Cc2ccc(Cn3cc(C4CCCC4)cn3)cc2)C(=O)N(C)[C@@H](CC(C)C)C(=O)O[C@H](C)C(=O)N(C)[C@@H](CC(C)C)C(=O)O[C@H](Cc2ccccc2)C(=O)N(C)[C@@H](CC(C)C)C(=O)O[C@H](C)C(=O)N1C [Example 2-38, (3S,6R,9S,12R,15S,18R,21S,24R)-6-benzyl-18-(4-((4-cyclopentyl-1H-pyrazol-1-yl)methyl)benzyl)-3,9,15,21-tetraisobutyl-4,10,12,16,22,24-hexamethyl-1,7,13,19-tetraoxa-4,10,16,22-tetraazacyclotetracosan-2,5,8,11,14,17,20,23-octaone] | 0.01 to 0.1 µM |
| CCOc1cnn(Cc2ccc(C[C@H]3OC(=O)[C@H](CC(C)C)N(C)C(=O)[C@@H](C)OC(=O)[C@H](CC(C)C)N(C)C(=O)[C@@H](Cc4ccc(CO)cc4)OC(=O)[C@H](CC(C)C)N(C)C(=O)[C@@H](C)OC(=O)[C@H](CC(C)C)N(C)C3=O)cc2)c1 [Example 2-39, (3S,6R,9S,12R,15S,18R,21S,24R)-6-(4-((4-ethoxy-1H-pyrazol-1-yl)methyl)benzyl)-18-(4-(hydroxymethyl)benzyl)-3,9,15,21-tetraisobutyl-4,10,12,16,22,24-hexamethyl-1,7,13,19-tetraoxa-4,10,16,22-tetraazacyclotetracosan-2,5,8,11,14,17,20,23-octaone] | 0.001 to 0.01 µM |
| Cc1nn(Cc2ccc(C[C@H]3OC(=O)[C@H](CC(C)C)N(C)C(=O)[C@@H](C)OC(=O)[C@H](CC(C)C)N(C)C(=O)[C@@H](Cc4ccccc4)OC(=O)[C@H](CC(C)C)N(C)C(=O)[C@@H](C)OC(=O)[C@H](CC(C)C)N(C)C3=O)cc2)c(C)c1S(=O)(=O)N1CCCC1 [Example 2-40, (3S,6R,9S,12R,15S,18R,21S,24R)-6-benzyl-18-(4-((3,5-dimethyl-4-(pyrrolidin-1-ylsulfonyl)-1H-pyrazol-1-yl)methyl)benzyl)-3,9,15,21-tetraisobutyl-4,10,12,16,22,24-hexamethyl-1,7,13,19-tetraoxa-4,10,16,22-tetraazacyclotetracosan-2,5,8,11,14,17,20,23-octaone] | 0.01 to 0.1 µM |
| CC(C)C[C@H]1C(=O)O[C@H](Cc2ccc(Cn3nc(CO)cc3CO)cc2)C(=O)N(C)[C@@H](CC(C)C)C(=O)O[C@H](C)C(=O)N(C)[C@@H](CC(C)C)C(=O)O[C@H](Cc2ccccc2)C(=O)N(C)[C@@H](CC(C)C)C(=O)O[C@H](C)C(=O)N1C [Example 2-42, (3S,6R,9S,12R,15S,18R,21S,24R)-6-benzyl-18-(4-((3,5-bis(hydroxymethyl)-1H-pyrazol-1-yl)methyl)benzyl)-3,9,15,21-tetraisobutyl-4,10,12,16,22,24-hexamethyl-1,7,13,19-tetraoxa-4,10,16,22-tetraazacyclotetracosan-2,5,8,11,14,17,20,23-octaone] | 0.01 to 0.1 µM |
| CC(=O)Nc1c(C)nn(Cc2ccc(C[C@H]3OC(=O)[C@H](CC(C)C)N(C)C(=O)[C@@H](C)OC(=O)[C@H](CC(C)C)N(C)C(=O)[C@@H](Cc4ccccc4)OC(=O)[C@H](CC(C)C)N(C)C(=O)[C@@H](C)OC(=O)[C@H](CC(C)C)N(C)C3=O)cc2)c1C [Example 2-43, N-(1-(4-(((2R,5S,8R,11S,14R,17S,20R,23S)-14-benzyl-5,11,17,23-tetraisobutyl-4,8,10,16,20,22-hexamethyl-3,6,9,12,15,18,21,24-octaoxo-1,7,13,19-tetraoxa-4,10,16,22-tetraazacyclotetracosan-2-yl)methyl)benzyl)-3,5-dimethyl-1H-pyrazol-4-yl)acetamide] | 0.01 to 0.1 µM |
| Cc1nn(Cc2ccc(C[C@H]3OC(=O)[C@H](CC(C)C)N(C)C(=O)[C@@H](C)OC(=O)[C@H](CC(C)C)N(C)C(=O)[C@@H](Cc4ccccc4)OC(=O)[C@H](CC(C)C)N(C)C(=O)[C@@H](C)OC(=O)[C@H](CC(C)C)N(C)C3=O)cc2)c(C)c1O [Example 2-44, (3S,6R,9S,12R,15S,18R,21S,24R)-6-benzyl-18-(4-((4-hydroxy-3,5-dimethyl-1H-pyrazol-1-yl)methyl)benzyl)-3,9,15,21-tetraisobutyl-4,10,12,16,22,24-hexamethyl-1,7,13,19-tetraoxa-4,10,16,22-tetraazacyclotetracosan-2,5,8,11,14,17,20,23-octaone] | 0.001 to 0.01 µM |
| CC(C)C[C@H]1C(=O)O[C@H](Cc2ccc(Cn3cc(-c4cnccn4)cn3)cc2)C(=O)N(C)[C@@H](CC(C)C)C(=O)O[C@H](C)C(=O)N(C)[C@@H](CC(C)C)C(=O)O[C@H](Cc2ccccc2)C(=O)N(C)[C@@H](CC(C)C)C(=O)O[C@H](C)C(=O)N1C [Example 2-46, (3S,6R,9S,12R,15S,18R,21S,24R)-6-benzyl-3,9,15,21-tetraisobutyl-4,10,12,16,22,24-hexamethyl-18-(4-((4-(pyrazin-2-yl)-1H-pyrazol-1-yl)methyl)benzyl)-1,7,13,19-tetraoxa-4,10,16,22-tetraazacyclotetracosan-2,5,8,11,14,17,20,23-octaone] | 0.001 to 0.01 µM |
| CC(C)C[C@H]1C(=O)O[C@H](Cc2ccc(Cn3cc(-c4ccccn4)cn3)cc2)C(=O)N(C)[C@@H](CC(C)C)C(=O)O[C@H](C)C(=O)N(C)[C@@H](CC(C)C)C(=O)O[C@H](Cc2ccccc2)C(=O)N(C)[C@@H](CC(C)C)C(=O)O[C@H](C)C(=O)N1C [Example 2-47, (3S,6R,9S,12R,15S,18R,21S,24R)-6-benzyl-3,9,15,21-tetraisobutyl-4,10,12,16,22,24-hexamethyl-18-(4-((4-(pyridin-2-yl)-1H-pyrazol-1-yl)methyl)benzyl)-1,7,13,19-tetraoxa-4,10, 16,22-tetraazacyclotetracosan-2,5,8,11,14,17,20,23-octaone] | 0.001 to 0.01 µM |
| Cc1nn(Cc2ccc(C[C@H]3OC(=O)[C@H](CC(C)C)N(C)C(=O)[C@@H](C)OC(=O)[C@H](CC(C)C)N(C)C(=O)[C@@H](Cc4ccccc4)OC(=O)[C@H](CC(C)C)N(C)C(=O)[C@@H](C)OC(=O)[C@H](CC(C)C)N(C)C3=O)cc2)c(C)c1Cl [Example 2-50, (3S,6R,9S,12R,15S,18R,21S,24R)-6-benzyl-18-(4-((4-chloro-3,5-dimethyl-1H-pyrazol-1-yl)methyl)benzyl)-3,9,15,21-tetraisobutyl-4,10,12,16,22,24-hexamethyl-1,7,13,19-tetraoxa-4,10,16,22-tetraazacyclotetracosan-2,5,8,11,14,17,20,23-octaone] | 0.01 to 0.1 µM |
| CC(=O)NCc1cnn(Cc2ccc(C[C@H]3OC(=O)[C@H](CC(C)C)N(C)C(=O)[C@@H](C)OC(=O)[C@H](CC(C)C)N(C)C(=O)[C@@H](Cc4ccccc4)OC(=O)[C@H](CC(C)C)N(C)C(=O)[C@@H](C)OC(=O)[C@H](CC(C)C)N(C)C3=O)cc2)c1 [Example 2-52, N-((1-(4-(((2R,5S,8R,11S,14R,17S,20R,23S)-14-benzyl-5,11,17,23-tetraisobutyl-4,8,10,16,20,22-hexamethyl-3,6,9,12,15,18,21,24-octaoxo-1,7,13,19-tetraoxa-4,10,16,22-tetraazacyclotetracosan-2-yl)methyl)benzyl)-1H-pyrazol-4-yl)methyl)acetamide] | 0.01 to 0.1 µM |
| CC(C)C[C@H]1C(=O)O[C@H](Cc2ccc(Cn3nc(C(C)C)cc3C(C)C)cc2)C(=O)N(C)[C@@H](CC(C)C)C(=O)O[C@H](C)C(=O)N(C)[C@@H](CC(C)C)C(=O)O[C@H](Cc2ccccc2)C(=O)N(C)[C@@H](CC(C)C)C(=O)O[C@H](C)C(=O)N1C [Example 2-54, (3S,6R,9S,12R,15S,18R,21S,24R)-6-benzyl-18-(4-((3,5-diisopropyl-1H-pyrazol-1-yl)methyl)benzyl)-3,9,15,21-tetraisobutyl-4,10,12,16,22,24-hexamethyl-1,7,13,19-tetraoxa-4,10,16,22-tetraazacyclotetracosan-2,5,8,11,14,17,20,23-octaone] | 0.01 to 0.1 µM |

From patent US11331369B2, “Endoparasitic depsipeptides” (Zoetis Services LLC, priority 2017, dated 2022)
